The values that follow come from patent publication US8362031B2, “Lonidamine analogues and treatment of polycystic kidney disease” (University of Kansas, priority 2004, dated 2013).

SMILES strings stand for the structures.

The test system of the series is Salmonella Typhimurium TA 100. Description: Ames test for mutagenicity (plate assay, colony count). The conditions noted are these: 48 hours at 37° C.; for Ames test (+)S9 0.1 mg/pl. / Ames test (+)S9 1 mg/pl. / Ames test (+)S9 10 mg/pl.: (+)S9 mix; for Ames test (−)S9 0.1 mg/pl. / Ames test (−)S9 1 mg/pl. / Ames test (−)S9 10 mg/pl.: (−)S9 mix. A general note: The Ames test uses bacterial strains that need an amino acid and regain growth without it when mutated back.

Consider `NNC(=O)c1nn(Cc2ccc(Cl)cc2Cl)c2cc(Cl)ccc12` [DD-MC-II, 6-chloro-1-(2,4-dichlorobenzyl)-1H-indazole-3-carboxylic acid hydrazide], for which the “Ames test (+)S9 0.1 mg/pl.” value is on record as “Pass”, the “Ames test (+)S9 1 mg/pl.” value is listed as “Pass”, the “Ames test (+)S9 10 mg/pl.” value was “Pass” and the “Ames test (−)S9 0.1 mg/pl.” value is “Pass”. Also, the “Ames test (−)S9 1 mg/pl.” value is reported as “Pass” and the “Ames test (−)S9 10 mg/pl.” value is given as “Pass”.

Turning to `NNC(=O)c1nn(Cc2ccc(Cl)cc2Cl)c2cccnc12` [JWS-1-112, 1-(2,4-dichlorobenzyl)-1H-pyrazolo[4,3-b]pyridine-3-carboxylic acid hydrazide], the “Ames test (+)S9 0.1 mg/pl.” value is given as “Pass”, the “Ames test (+)S9 1 mg/pl.” value is given as “Pass”, the “Ames test (+)S9 10 mg/pl.” value is “Pass” and the “Ames test (−)S9 0.1 mg/pl.” value is given as “Pass”. In addition, the “Ames test (−)S9 1 mg/pl.” value was “Fail” and the “Ames test (−)S9 10 mg/pl.” value is listed as “Fail”.

On to `O=C(O)c1nn(Cc2ccc(Cl)cc2Cl)c2cnccc12` [JWS-1-132, 1-(2,4-dichlorobenzyl)-1H-pyrazolo[3,4-c]pyridine-3-carboxylic acid], for which the “Ames test (+)S9 0.1 mg/pl.” value is “Pass”, the “Ames test (+)S9 1 mg/pl.” value is recorded as “Pass”, the “Ames test (+)S9 10 mg/pl.” value was “Pass” and the “Ames test (−)S9 0.1 mg/pl.” value is listed as “Pass”. Further, the “Ames test (−)S9 1 mg/pl.” value is listed as “Pass” and the “Ames test (−)S9 10 mg/pl.” value is recorded as “Pass”.

In the case of `COC(=O)c1nn(Cc2ccc(Cl)cc2Cl)c2cc(C(F)(F)F)cnc12` [JWS-1-228, 1-(2,4-dichlorobenzyl)-6-trifluoromethyl-1H-pyrazolo[4,3-b]pyridine-3-carboxylic acid methyl ester], the “Ames test (+)S9 0.1 mg/pl.” value is reported as “Pass”, the “Ames test (+)S9 1 mg/pl.” value was “Pass”, the “Ames test (+)S9 10 mg/pl.” value is “Pass” and the “Ames test (−)S9 0.1 mg/pl.” value is listed as “Pass”. For the same compound, the “Ames test (−)S9 1 mg/pl.” value is recorded as “Pass” and the “Ames test (−)S9 10 mg/pl.” value was “Pass”.

On to `O=C(O)c1nn(Cc2ccc(Cl)cc2Cl)c2cc(C(F)(F)F)cnc12` [JWS-1-230, 1-(2,4-dichlorobenzyl)-6-trifluoromethyl-1H-pyrazolo[4,3-b]pyridine-3-carboxylic acid], for which the “Ames test (+)S9 0.1 mg/pl.” value is “Pass”, the “Ames test (+)S9 1 mg/pl.” value is recorded as “Pass”, the “Ames test (+)S9 10 mg/pl.” value is “Pass” and the “Ames test (−)S9 0.1 mg/pl.” value was “Pass”. Also, the “Ames test (−)S9 1 mg/pl.” value was “Pass” and the “Ames test (−)S9 10 mg/pl.” value was “Pass”.

Regarding `NNC(=O)c1nn(Cc2ccc(Cl)cc2Cl)c2cc(C(F)(F)F)cnc12` [JWS-1-232, 1-(2,4-dichlorobenzyl)-6-trifluoromethyl-1H-pyrazolo[4,3-b]pyridine-3-carboxylic acid hydrazide], the “Ames test (+)S9 0.1 mg/pl.” value was “Pass”, the “Ames test (+)S9 1 mg/pl.” value is “Pass”, the “Ames test (+)S9 10 mg/pl.” value is given as “Pass” and the “Ames test (−)S9 0.1 mg/pl.” value is listed as “Pass”. For the same compound, the “Ames test (−)S9 1 mg/pl.” value is reported as “Pass” and the “Ames test (−)S9 10 mg/pl.” value is recorded as “Pass”.

Take `NNC(=O)c1nn(Cc2ccc(Cl)cc2Cl)c2ccc(C(F)(F)F)cc12` [JWS-1-258, 1-(2,4-dichlorobenzyl)-5-trifluoromethyl-1H-indazole-3-carboxylic acid hydrazide]: the “Ames test (+)S9 0.1 mg/pl.” value is recorded as “Pass”, the “Ames test (+)S9 1 mg/pl.” value is given as “Pass”, the “Ames test (+)S9 10 mg/pl.” value is “Pass” and the “Ames test (−)S9 0.1 mg/pl.” value is “Pass”. Moreover, the “Ames test (−)S9 1 mg/pl.” value is reported as “Pass” and the “Ames test (−)S9 10 mg/pl.” value is on record as “Pass”.

`O=C(O)c1nn(Cc2ccc(Cl)cc2Cl)c2ccc(C(F)(F)F)cc12` [JWS-1-260, 1-(2,4-dichlorobenzyl)-5-trifluoromethyl-1H-indazole-3-carboxylic acid]: the “Ames test (+)S9 0.1 mg/pl.” value is given as “Pass”, the “Ames test (+)S9 1 mg/pl.” value is reported as “Pass”, the “Ames test (+)S9 10 mg/pl.” value is listed as “Pass” and the “Ames test (−)S9 0.1 mg/pl.” value is recorded as “Pass”. Also, the “Ames test (−)S9 1 mg/pl.” value is “Pass” and the “Ames test (−)S9 10 mg/pl.” value is “Pass”.

`O=C(O)/C=C/c1nn(Cc2ccc(Cl)cc2Cl)c2ccc(C(F)(F)F)cc12` [JWS-1-268, 3-[1-(2,4-dichlorobenzyl)-5-trifluoromethyl-1H-indazol-3-yl]-acrylic acid]: the “Ames test (+)S9 0.1 mg/pl.” value was “Pass”, the “Ames test (+)S9 1 mg/pl.” value was “Pass”, the “Ames test (+)S9 10 mg/pl.” value is reported as “Pass” and the “Ames test (−)S9 0.1 mg/pl.” value is recorded as “Pass”. The “Ames test (−)S9 1 mg/pl.” value is “Pass” and the “Ames test (−)S9 10 mg/pl.” value was “Pass”.

For the compound `O=C(O)c1nn(Cc2ccc(F)cc2F)c2cc(Cl)ccc12` [JWS-1-284, 1-(2,4-difluorobenzyl)-6-chloro-1H-indazole-3-carboxylic acid], the “Ames test (+)S9 0.1 mg/pl.” value is “Pass”, the “Ames test (+)S9 1 mg/pl.” value is given as “Fail”, the “Ames test (+)S9 10 mg/pl.” value is recorded as “Fail” and the “Ames test (−)S9 0.1 mg/pl.” value was “Pass”. Further, the “Ames test (−)S9 1 mg/pl.” value is reported as “Fail” and the “Ames test (−)S9 10 mg/pl.” value is recorded as “Fail”.

As for `O=C(O)/C=C/c1nn(Cc2ccc(F)cc2F)c2cc(C(F)(F)F)ccc12` [JWS-1-294, 3-[1-(2,4-difluorobenzyl)-6-trifluoromethyl-1H-indazol-3-yl]-acrylic acid], the “Ames test (+)S9 0.1 mg/pl.” value is “Pass”, the “Ames test (+)S9 1 mg/pl.” value is reported as “Pass”, the “Ames test (+)S9 10 mg/pl.” value was “Pass” and the “Ames test (−)S9 0.1 mg/pl.” value is “Pass”. Moreover, the “Ames test (−)S9 1 mg/pl.” value was “Pass” and the “Ames test (−)S9 10 mg/pl.” value is “Pass”.

As for `O=C(O)/C=C/c1nn(Cc2ccc(F)cc2F)c2cc(Cl)ccc12` [JWS-1-298, 3-[1-(2,4-difluorobenzyl)-6-chloro-1H-indazol-3-yl]-acrylic acid], the “Ames test (+)S9 0.1 mg/pl.” value was “Pass”, the “Ames test (+)S9 1 mg/pl.” value is given as “Fail”, the “Ames test (+)S9 10 mg/pl.” value was “Fail” and the “Ames test (−)S9 0.1 mg/pl.” value was “Pass”. Also, the “Ames test (−)S9 1 mg/pl.” value is “Fail” and the “Ames test (−)S9 10 mg/pl.” value is recorded as “Fail”.

As to `COC(=O)c1nn(Cc2ccc(F)cc2F)c2ccc(C(F)(F)F)cc12` [JWS-1-300, 1-(2,4-difluorobenzyl)-5-trifluoromethyl-1H-indazole-3-carboxylic acid methyl ester], the “Ames test (+)S9 0.1 mg/pl.” value is “Pass”, the “Ames test (+)S9 1 mg/pl.” value is “Fail”, the “Ames test (+)S9 10 mg/pl.” value is “Fail” and the “Ames test (−)S9 0.1 mg/pl.” value is given as “Pass”. In addition, the “Ames test (−)S9 1 mg/pl.” value was “Fail” and the “Ames test (−)S9 10 mg/pl.” value was “Fail”.

For the compound `NNC(=O)c1nn(Cc2ccc(F)cc2F)c2ccc(C(F)(F)F)cc12` [JWS-1-302, 1-(2,4-difluorobenzyl)-5-trifluoromethyl-1H-indazole-3-carboxylic acid hydrazide], the “Ames test (+)S9 0.1 mg/pl.” value is “Pass”, the “Ames test (+)S9 1 mg/pl.” value is “Pass”, the “Ames test (+)S9 10 mg/pl.” value is recorded as “Fail” and the “Ames test (−)S9 0.1 mg/pl.” value is “Pass”. The “Ames test (−)S9 1 mg/pl.” value is recorded as “Pass” and the “Ames test (−)S9 10 mg/pl.” value was “Pass”.

As to `O=C(O)c1nn(Cc2ccc(F)cc2F)c2ccc(C(F)(F)F)cc12` [JWS-2-1, 1-(2,4-difluorobenzyl)-5-trifluoromethyl-1H-indazole-3-carboxylic acid], the “Ames test (+)S9 0.1 mg/pl.” value was “Pass”, the “Ames test (+)S9 1 mg/pl.” value is “Pass”, the “Ames test (+)S9 10 mg/pl.” value was “Pass” and the “Ames test (−)S9 0.1 mg/pl.” value was “Pass”. For the same compound, the “Ames test (−)S9 1 mg/pl.” value was “Mar-” and the “Ames test (−)S9 10 mg/pl.” value is “Fail”.

With `O=C(O)/C=C/c1nn(Cc2ccc(F)cc2F)c2ccc(C(F)(F)F)cc12` [JWS-2-10, 3-[1-(2,4-difluorobenzyl)-5-trifluoromethyl-1H-indazol-3-yl]-acrylic acid], the “Ames test (+)S9 0.1 mg/pl.” value is “Pass”, the “Ames test (+)S9 1 mg/pl.” value is “Pass”, the “Ames test (+)S9 10 mg/pl.” value is recorded as “Pass” and the “Ames test (−)S9 0.1 mg/pl.” value is on record as “Pass”. Further, the “Ames test (−)S9 1 mg/pl.” value is “Pass” and the “Ames test (−)S9 10 mg/pl.” value is reported as “Pass”.

Take `O=C(O)c1nn(Cc2ccc(F)cc2Cl)c2cc(C(F)(F)F)ccc12` [JWS-2-14, 1-(2-chloro-4-fluorobenzyl)-6-trifluoromethyl-1H-indazole-3-carboxylic acid]: the “Ames test (+)S9 0.1 mg/pl.” value was “Pass”, the “Ames test (+)S9 1 mg/pl.” value is listed as “Pass”, the “Ames test (+)S9 10 mg/pl.” value was “Fail” and the “Ames test (−)S9 0.1 mg/pl.” value was “Pass”. In addition, the “Ames test (−)S9 1 mg/pl.” value is “Fail” and the “Ames test (−)S9 10 mg/pl.” value was “Fail”.

On to `COC(=O)c1nn(Cc2ccc(F)cc2Cl)c2cc(Cl)ccc12` [JWS-2-18, 1-(2-chloro-4-fluorobenzyl)-6-chloro-1H-indazole-3-carboxylic acid methyl ester], for which the “Ames test (+)S9 0.1 mg/pl.” value is reported as “Pass”, the “Ames test (+)S9 1 mg/pl.” value was “Fail”, the “Ames test (+)S9 10 mg/pl.” value is given as “Fail” and the “Ames test (−)S9 0.1 mg/pl.” value is recorded as “Pass”. The “Ames test (−)S9 1 mg/pl.” value is recorded as “Pass” and the “Ames test (−)S9 10 mg/pl.” value was “Mar-”.

`O=C(O)c1nn(Cc2ccc(F)cc2Cl)c2cc(Cl)ccc12` [JWS-2-20, 1-(2-chloro-4-fluorobenzyl)-6-chloro-1H-indazole-3-carboxylic acid]: the “Ames test (+)S9 0.1 mg/pl.” value is reported as “Pass”, the “Ames test (+)S9 1 mg/pl.” value is listed as “Fail”, the “Ames test (+)S9 10 mg/pl.” value is recorded as “Fail” and the “Ames test (−)S9 0.1 mg/pl.” value was “Mar-”. Besides, the “Ames test (−)S9 1 mg/pl.” value was “Fail” and the “Ames test (−)S9 10 mg/pl.” value is “Fail”.

For the compound `O=C(O)/C=C/c1nn(Cc2ccc(F)cc2Cl)c2cc(Cl)ccc12` [JWS-2-36, 3-[1-(2-chloro, 4-fluorobenzyl)-6-chloro-1H-indazol-3-yl]-acrylic acid], the “Ames test (+)S9 0.1 mg/pl.” value was “Pass”, the “Ames test (+)S9 1 mg/pl.” value is listed as “Pass”, the “Ames test (+)S9 10 mg/pl.” value was “Pass” and the “Ames test (−)S9 0.1 mg/pl.” value is on record as “Pass”. Besides, the “Ames test (−)S9 1 mg/pl.” value was “Fail” and the “Ames test (−)S9 10 mg/pl.” value is reported as “Pass”.
